Source: patent USRE28819E, “Dialkylated glycol compositions and medicament preparations containing same” (Syntex (U.S.A.) Inc., priority 1975, dated 1976)
In brackets after ≈: the same amount, converted by molar mass. Counter-ions that a name gives are not always drawn.

Tests used:
physchem = conditions: polyethylene glycol-550-dimethyl ether, organic solvent or mixture
[1] = solubility of medicament in polyethylene glycol-550-dimethyl ether at 30°C
[2] = literature (Brummer; Karim et al); cited from earlier work
[3] = storage stability of PGE2 formulations (percent activity, t90); assay type: physicochemical; conditions: PGE2, conclusion from Examples XV-XXIX
Protocol: A formulation is prepared having 1 mg. PGE2 per ml. 1,2-dimethoxyethane. After 12 days storage at 60°C. under a nitrogen atmosphere, the PGE2 assays 100% of the activity at time zero.
A formulation is prepared having 1 mg. PGE2 per ml. of triethylene glycol-dimethyl ether. After 5 days storage at 60°C. under a nitrogen atmosphere, the PGE2 assays 100% of the activity at time zero.
The following formulations are prepared having 1 mg. PGE2 per ml. of polyethylene glycol-550-dimethyl ether, and the additional material(s) as set forth below. The percent activity of the PGE2 after storage for 7 days at 80°C. is also given.
A formulation is prepared having 1 mg. PGE2, 0.01% edetic acid, 0.01% BHA and 0.01% BHT per ml. polyethylene glycol-550-dimethyl ether, and sealed in an ampule under nitrogen atmosphere. After 18 days storage at 80°C., the PGE2 assays 100% of the activity at time zero.
The following formulations are prepared having 1 mg. PGE2 per ml. polyethylene glycol-550 -dimethyl ether, and the additional material(s) as set forth below, and the sealed in individual ampules under nitrogen atmosphere. The time (t90) for 10% of the PGE2 to decompose when stored at 80°C. is given. Also given is the corresponding t90 for a formulation having 1 mg. PGE2 per ml. polyethylene glycol-400, also sealed under nitrogen atmosphere.
By comparison, 1 mg. […]

[4] = decomposition of aspirin vs. time in formulation stored at 80°C; assay type: physicochemical; conditions: conclusion from Examples XV-XXIX
Protocol: A formulation is prepared having 0.5 g. aspirin per 1.0g. polyethylene glycol- 750-dimethyl ether, and stored at 80°C. Decomposition of the aspirin is measured vs. time. The time for 10% decomposition is 27 hours. This reflects approximately a 30 month shelf-life at 25°C. This can be compared to a published report [Jun et al, J. Pharm. Sec.

[5] = polyethylene glycol-550-dimethyl ether, organic solvent or mixture

| Compound | solubility (physchem) [µg/mL] | solubility [1, 5] [µg/mL] | other results |
| --- | --- | --- | --- |
| CC(=O)[C@@]12OC(C)(C)O[C@@H]1C[C@H]1[C@@H]3C[C@H](F)C4=CC(=O)C=C[C@]4(C)[C@@]3(F)[C@@H](O)C[C@@]12C [6α,9α-difluoro-11β-hydroxy-16α,17α-isopropylidenedioxy-pregna-1,4-diene-3,20-dione] | 6500 (≈ 14.9 mM) |  |  |
| CC1(C)O[C@@H]2C[C@H]3[C@@H]4C[C@H](F)C5=CC(=O)C=C[C@]5(C)[C@@]4(Cl)[C@@H](Cl)C[C@]3(C)[C@]2(C(=O)CCl)O1 [9α,11β,21-trichloro-6α-fluoro-16α,17α-isopropylidenedioxy-pregna-1,4-diene-3,20-dione] | 1500 (≈ 2.97 mM) |  |  |
| CCCCCCCCCCCCCCCC(=O)N(CCO)CCO [N,N-bis(2-hydroxyethyl)-palmitamide] |  | 2700 (≈ 7.86 mM) |  |
| CCCCC[C@H](O)/C=C/[C@H]1[C@H](O)CC(=O)[C@@H]1C/C=C\CCCC(=O)O [PGE2, 11α,15α-dihydroxy-9-keto-5,13-prostadienoic acid] |  | 2000 (≈ 5.67 mM) | chemical stability [2]: relatively unstable; chemical potency in the dialkylated glycol vehicle [3]: stabilizes, for extended periods of time, the chemical potency |
| CCCCC[C@H](O)/C=C/[C@@H]1[C@@H](C/C=C\CCCC(=O)O)[C@@H](O)C[C@H]1O [PGF2α, 9α,11α,15α-trihydroxy-5,13-prostadienoic acid] | 36000 (≈ 102 mM) |  |  |
| CC(=O)Oc1ccccc1C(=O)O [aspirin, acetylsalicylic acid] |  | 120000 (≈ 666 mM) | chemical potency in the dialkylated glycol vehicle [4]: stabilizes, for extended periods of time, the chemical potency |
| CCOC(=O)c1ccc(N)cc1 [benzocaine] |  | 111000 (≈ 672 mM) |  |
| CN(C)C1C(=O)C(C(N)=O)=C(O)C2(O)C(=O)C3=C(O)c4c(O)cccc4C(C)(O)C3C(O)C12 (stereo not drawn) [oxytetracycline hydrochloride] | 340 |  |  |
| gramicidin |  |  | solubility ([1]; in polyethylene glycol-550-dimethyl ether, 30°C): 4400 µg/mL |
